Experimental data from PMC3949517 (Acta Crystallographica Section D: Biological Crystallography, 2014).
Values joined by “and” are separate entries in the source; they are usually repeats but may differ in a detail not shown here. Equal entries are not always repeated. Bridge positions count the residues as written; N and C are the ends. Ends that are not written are not given here. Peptide text beside a SMILES is read from it. * marks the point of attachment. Biotin = O=C1N[C@H]2[C@H](CS[C@H]2CCCCC(=O)*)N1

Experiments:
A17λ reactibody = format: binding, human; settings: for Kd: read-out: Kd (BiaCore affinity constant)
A17κ reactibody = format: binding, human
scFvA17 = format: binding, human
[1] = system: recombinant Fab reactibodies (FabA17κ, FabA17λ); format: binding, human
A17 reactibody = settings: cited from earlier work
[2] = system: A17λ reactibody (FabA17λ); format: biochemical, human
[3] = system: A17κ reactibody (FabA17κ); format: biochemical, human
[4] = system: A17κ reactibody (FabA17κ); format: biochemical, human; remark: listed apart in the source
[5] = system: A17κ reactibody (FabA17κ); format: biochemical, human; remark: listed apart in the source
[6] = system: A17λ reactibody (FabA17λ); format: biochemical, human; remark: listed apart in the source
[7] = biological target: T1, pep54L, linear (reduced) synthetic peptide 54 (synthetic (phage library-derived), cysteine pairing not given here); test: SPR; Biacore T200, SA sensor chip; biotinylated synthetic peptides immobilised, antibodies injected at a range of concentrations, 10 µl/min, 298 K; association and dissociation 300 s each; 1:1 binding model, affinity-analysis option; settings: both partners purified
T1 construct: also called pep54 linear form; source: synthetic peptide
T1 chain: GACPNPWGLLCGAAGAEK(Biotin)-NH2

[8] = biological target: T2, pep50L, linear (reduced) synthetic peptide 50 (synthetic (phage library-derived), cysteine pairing not given here); test: as above; settings: both partners purified
T2 construct: also called pep50 linear form; source: synthetic peptide
T2 chain: GACRNPWGLTCGAAGAEK(Biotin)-NH2

CC(C)C[C@@H]1NC(=O)CNC(=O)[C@H](Cc2c[nH]c3ccccc23)NC(=O)[C@@H]2CCCN2C(=O)[C@H](CC(N)=O)NC(=O)[C@H](CCCNC(=N)N)NC(=O)[C@@H](NC(=O)[C@H](C)NC(=O)CN)CSSC[C@@H](C(=O)NCC(=O)N[C@@H](C)C(=O)N[C@@H](C)C(=O)NCC(=O)N[C@@H](C)C(=O)N[C@@H](CCC(=O)O)C(=O)N[C@@H](CCCCNC(=O)CCCC[C@@H]2SC[C@@H]3NC(=O)N[C@@H]32)C(N)=O)NC(=O)[C@H]([C@@H](C)O)NC1=O [50C] (H-GACRNPWGLTCGAAGAEK(Biotin)-NH2; disulfide 3-11)
affinity (in words) (A17λ reactibody): high affinity | affinity (in words) (A17κ reactibody): high affinity | binding activity of A17κ compared with A17λ (in words) (A17κ reactibody): A17κ was more active in binding either the linear or the cyclic form of pep50 | Kd (A17κ reactibody; read-out: Kd (BiaCore affinity constant)): 900 nM

CPNPWGLLC (disulfide 1-9 (inferred)) [pep54]
binding to scFvA17 (in words) (scFvA17): specifically bind | effect of phosphonylation of scFv on ELISA signals (in words) (scFvA17): significantly enhanced the ELISA signals | binding by recombinant Fab reactibodies (in words) [1]: capable of binding | effect of phosphonylation of the Fabs on level of binding (in words) [1]: reduced the level of binding

CC(C)C[C@@H]1NC(=O)CNC(=O)[C@H](Cc2c[nH]c3ccccc23)NC(=O)[C@@H]2CCCN2C(=O)[C@H](CC(N)=O)NC(=O)[C@@H]2CCCN2C(=O)[C@@H](NC(=O)[C@H](C)NC(=O)CN)CSSC[C@@H](C(=O)NCC(=O)N[C@@H](C)C(=O)N[C@@H](C)C(=O)NCC(=O)N[C@@H](C)C(=O)N[C@@H](CCC(=O)O)C(=O)N[C@@H](CCCCNC(=O)CCCC[C@@H]2SC[C@@H]3NC(=O)N[C@@H]32)C(N)=O)NC(=O)[C@H](CC(C)C)NC1=O [54C] (H-GACPNPWGLLCGAAGAEK(Biotin)-NH2; disulfide 3-11)
binding activity of A17λ compared with A17κ (in words) (A17λ reactibody): A17λ was more active than A17κ

p-nitrophenyl 8-methyl-8-azabicyclo[3.2.1]octylphenylphosphonate [phosphonate X]
reaction with A17 reactibody (in words) (A17 reactibody): irreversibly binding | Ea (activation-energy parameter), phosphonate X [2]: 11.4 0.5 kcalmol^1 | Kd ([2]; pH 7.4): 110 µM and 145 µM and 170 µM and 130 µM and 180 µM | k2, phosphonate X ([2]; pH 7.4): 0.28 0.02 min^1 | rate of induced-fit stage, A17κ vs A17λ (in words) [3]: induced-fit stage is more rapid in the κ variant | Ea (activation-energy parameter), phosphonate X [4]: 12.5 1.3 kcalmol^1 | Kd ([4]; pH 7.4): 120 µM and 150 µM and 80 µM and 130 µM | k2, phosphonate X ([4]; pH 7.4): 0.24 0.03 min^1

CC(C)C[C@H](NC(=O)CNC(=O)[C@H](Cc1c[nH]c2ccccc12)NC(=O)[C@@H]1CCCN1C(=O)[C@H](CC(N)=O)NC(=O)[C@H](CCCNC(=N)N)NC(=O)[C@H](CS)NC(=O)[C@H](C)NC(=O)CN)C(=O)N[C@H](C(=O)N[C@@H](CS)C(=O)NCC(=O)N[C@@H](C)C(=O)N[C@@H](C)C(=O)NCC(=O)N[C@@H](C)C(=O)N[C@@H](CCC(=O)O)C(=O)N[C@@H](CCCCNC(=O)CCCC[C@@H]1SC[C@@H]2NC(=O)N[C@@H]21)C(N)=O)[C@@H](C)O [50L] (H-GACRNPWGLTCGAAGAEK(Biotin)-NH2)
affinity (in words) (A17λ reactibody): high affinity | Kd (A17λ reactibody): 2.3 µM | affinity (in words) (A17κ reactibody): high affinity | binding activity of A17κ compared with A17λ (in words) (A17κ reactibody): A17κ was more active in binding either the linear or the cyclic form of pep50

CC(C)C[C@H](NC(=O)CNC(=O)[C@H](Cc1c[nH]c2ccccc12)NC(=O)[C@@H]1CCCN1C(=O)[C@H](CC(N)=O)NC(=O)[C@@H]1CCCN1C(=O)[C@H](CS)NC(=O)[C@H](C)NC(=O)CN)C(=O)N[C@@H](CC(C)C)C(=O)N[C@@H](CS)C(=O)NCC(=O)N[C@@H](C)C(=O)N[C@@H](C)C(=O)NCC(=O)N[C@@H](C)C(=O)N[C@@H](CCC(=O)O)C(=O)N[C@@H](CCCCNC(=O)CCCC[C@@H]1SC[C@@H]2NC(=O)N[C@@H]21)C(N)=O [54L] (H-GACPNPWGLLCGAAGAEK(Biotin)-NH2)
Kd (A17λ reactibody): 18 µM

CCOP(=O)(OCC)Oc1ccc([N+](=O)[O-])cc1 [paraoxon, O,O-Diethyl O-(4-nitrophenyl)phosphate]
reaction with A17 reactibody (in words) (A17 reactibody): hydrolyzing | k2/KD, paraoxon [5]: 1.15 ± 0.52 M–1 min–1 | k2/Kd, paraoxon ([5]; pH 7.4): 1.2 0.5 M ^1min^1 | k2/KD, paraoxon [6]: 1.63 ± 0.65 M–1 min–1 | k2/Kd, paraoxon ([6]; pH 7.4): 1.6 0.6 M ^1min^1

CRNPWGLTC (disulfide 1-9 (inferred)) [pep50]
binding to scFvA17 (in words) (scFvA17): specifically bind | effect of phosphonylation of scFv on ELISA signals (in words) (scFvA17): significantly enhanced the ELISA signals | binding by recombinant Fab reactibodies (in words) [1]: capable of binding | effect of phosphonylation of the Fabs on level of binding (in words) [1]: reduced the level of binding

B1: FabA17λ (Fab of the A17 reactibody with the λ light-chain constant domain) (Fab, V domains shown)
VH: QVQLQESGPGLVKPSETLSLTCAVSGYSISSGYYWGWIRQPPGKGLEWIGSIYHSGSTYYNPSLKSRVTISVDTSKNQFSLKLSSVTAADTAVYYCAGLTQSSHNDANWGQGTLVTVSS
VL: QSVLTQPPSVSAAPGQKVTISCSGSSSNIGNNYVSWYQQLPGTAPKLLIYDNNKRPSGIPDRFSGSKSGTSATLGITGLQTGDEADYYCGTWDSSLNPVFGGGTKLTVL
notes: as the heavy chain of m1 (HCH: A17 VH, human CH1, hinge region); natural-type λ light chain: A17 VL (identical to the VL of m1) with the J2 segment and the constant region of human λ2 light chain; also called FabA17 λ variant; source: Pichia pastoris GS115, culture medium, purified (Talon, Mono Q, Superdex 75)
Kd [7]: 18 µM | Kd [8]: 2300 nM
